Patent US20140357688A1, “METHOD FOR INHIBITING EZH2 EXPRESSION IN BREAST CANCER CELLS” (Yung Shin Pharm. Ind. Co., Ltd., priority 2013, published 2014)

How the values were obtained:
[1] = In vivo pharmacokinetic analysis
MDA-MB-468 xenograft = test: MDA-MB-468 breast cancer xenograft animal model; format: in vivo, Nu/Nu mice
Method: MDA-MB-468 cells were used to inoculate Nu/Nu mice. (A, left) Tumor bearing mice were given vehicle (10 μl DMSO, CTL) or YC-1 (30 and 60 mg/kg/day) by ip treatment. (B, right) Tumor bearing mice were given vehicle (normal saline, CTL) or YC-1-succinate (YC-1-S; 20, 40, and 80 mg/kg/day) by oral administration. During treatment period, tumor volume and body weights of mice were measured once per 3 days. Data are expressed as mean of tumor volume (mm^3)±S.E.M. from 6 mice (YC-1 treatment) or 10 mice (YC-1-S treatment). Tumor weights (B) and body weights of mice (C) in control and YC-1/YC-1-S-treated groups were recorded.
Nu/Nu female mice (four weeks old) were from National Laboratory Animal Center, Taipei, Taiwan. Mice were maintained under procedures and guidelines from the Institutional Animal Care and Use of the National Health Research Institutes. MDA-MB-468 breast cancer cells (5×10^6 cells per mouse) were suspended in 0.1 ml of Matrigel solution (50%, v/v, Matrigel in 1×PBS) and inoculated into the mammary fat pads of nude mice. When the tumor masses reached to 100 mm^3, the tumor bearing mice were randomly divided into different groups for different dosage of YC-1 treatments. The mice were given by intraperitoneal injection with YC-1 or oral administration of YC-1-succinate. Tumor size and body weights of mice were measured once per 3 days and tumor volume (mm^3) was calculated as the equation: length×[…]. At the end of experiments, mice were sacrificed and tumor nodules were dissected and weighted. Tumor tissues were subjected to western blot analysis.

MDA-MB-468 = test: MTT cell viability assay; format: cell-based, human; settings: inhibitor pretreatment, then 3 μM YC-1 for 6 h
Method: (A) Cells were treated with indicated concentration of YC-1 for 6, 24, and 48 h. Cell viability was determined by MTT method. (B) MDA-MB-468 cells were treated with 3 μM YC-1 for 0, 6, and 12 h, and then stained with fluorescence diacetate (FDA) and propidium iodide (PI). Cell morphology was assessed by fluorescence microscopy with magnification ×20 (upper 3 rows) or ×40 (lowest row). (C) MDA-MB-468 cells were treated with 3 μM YC-1 for 24 h, cells were lysed and subjected to western blot analysis described in Materials and Methods. β-actin is a loading control. Blots were representative of results from three independent experiments. (D) Cells were treated with vehicle (DMSO, as control) or 3 μM YC-1 for 6 h. The cell cycles were analyzed by flow cytometry. (E) Cells were treated with indicated concentration of YC-1 and then performed with clonogenic assay.
Human breast cancer cells, MDA-MB-468, MDA-MB-157, MDA-MB-231, MDA-MB-453, and Hs578T, and immortalized mammary epithelial cell lines, 184A1 and MCF-10A, were obtained from American Type Culture Collection (Manassas, Va., USA). MDA-MB-468, MDA-MB-157, MDA-MB-231, and MDA-MB-453 were cultured in DMEM/F12 medium supplemented with 10% FBS, 100 U/ml penicillin, and 100 μg/ml streptomycin. Hs578T was cultured in RPMI 1640 medium containing 10% FBS, 2 mM L-glutamine, 100 U/ml penicillin, and 100 μg/ml streptomycin. 184A1 and MCF-10A were cultured in DMEM/F12 medium supplemented with 5% horse serum, 0.5 μg/ml hydrocortisone, 10 μg/ml insulin, 20 ng/ml epidermal growth factor, 0.1 μg/ml cholera enterotoxin, 2 mM L-glutamine, 100 U/ml penicillin, and 100 μg/ml streptomycin. All cells were maintained in a humidified incubator containing 5% CO2. For hypoxia treatment, cells were incubated in a chamber flushed with 1% 02, 5% CO2, and 94% N2 at 37° C.
Cell viability was measured by 3-(4,5-Dimethyl-2-thiazolyl)2,5-diphenyl-2H-tetrazolium bromide (MTT) assay.

ERK = test: Western blot of ERK phosphorylation in MDA-MB-468 cells; format: cell-based, human; settings: 3 μM YC-1 for 6 h in the presence of inhibitor
Method: (A) Cells were pretreated with KT5720 (3 μM), KT5823 (3 μM), NS2028 (30 μM), or ODQ (30 μM) and then stimulated with YC-1 (3 μM) for 6 h. Cells were collected for measurement of protein expression (left) or cell viability (middle). After 3 days of PKA knockdown, cells were induced with 3 μM YC-1 for 4 h. Cells were harvested and analyzed using western blotting (right). The levels of protein expression were quantitated and shown under blots. […] Cells were collected and analyzed protein expression (left) and cells viability (middle). p44/42 MAPK knockdown cells were treated with 3 μM YC-1 for 4 h and then detected protein expression (left). (C) Cells were treated with 3 μM YC-1 for indicated time. Cells were harvested for detection of protein phosphorylated activation. […] Six hours later, cells were harvested for EZH2 ubiquitination assay. (E) Cells were induced by 3 μM YC-1 for 6 h in the presence of PD98059 or KT5720. Cells were collected for the determination of ERK phosphorylation. Cells were lysed in PBS containing proteinase inhibitor and phosphatase inhibitors and sonication. Protein concentration was measured using the Bio-Rad protein assay kit (Bio-Rad Laboratories, Hercules, Calif., USA). […] The band intensities were analyzed and quantified by the Multi Gauge software (Fuji Photo Film).

EZH2 [2] = test: Western blot of EZH2 protein expression in MDA-MB-468 cells; format: cell-based, human; settings: inhibitor pretreatment, then 3 μM YC-1 for 6 h
Method: Cells were harvested and performed with western blotting analysis. […] The levels of protein expression were quantitated and shown under blots. (C) Cells were transfected with EZH2 shRNA for 0, 1, 2, 3, and 4 days and collected for determination of cell viability (left) and protein expression (right). (D)(E) After 4 days of EZH2 knockdown, cells were incubated with 3 μM YC-1 for 4 h and detected cell viability (D) and protein contents (E). (F) Tumor specimens were isolated and protein was extracted for western blot analysis.
Cells were lysed in PBS containing proteinase inhibitor and phosphatase inhibitors and sonication. Protein concentration was measured using the Bio-Rad protein assay kit (Bio-Rad Laboratories, Hercules, Calif., USA). Lysate protein was separated by electrophoresis of SDS-PAGE and transferred to Immobilon P membrane (EMD Millipore). The membranes were incubated with appropriate primary antibodies and horseradish peroxidase-conjugated secondary antibodies (EMD Millipore). The signaling was visualized using Chemiluminescence substrate kit (EMD Millipore) and collected by the Luminesence image analyzer, LAS4000 (Fuji Photo Film Co., Tokyo, Japan). The band intensities were analyzed and quantified by the Multi Gauge software (Fuji Photo Film).

EZH2 [3] = test: EZH2 ubiquitination assay; format: cell-based, human; settings: inhibitor pretreatment, then 3 μM YC-1
Method: (A) Cells were pretreated with cyclohexamide (30 μM) for 1 h and followed by induction with vehicle (DMSO) or YC-1 (3 μM) for indicated time. Cells were harvested for detection of protein expression. (B)(C) Cells were incubated with 3 μM YC-1 for 6 h in the presence of vehicle, 3 μM MG-132 or 30 μM NH4Cl. Cells were harvested for detection of protein expression (B) or cell viability assay (C). The levels of protein expression were quantitated and shown under blots. (D) After treatment of 3 μM YC-1 for indicated time, cells were harvested and lysed for immunoprecipitation and western blot analysis described in Materials and Methods.
Cells were lysed with MLB buffer (25 mM HEPES, pH 7.5, 150 mM NaCl, 1% Igepal CA-630, 10 mM MgCl2, 1 mM EDTA, 2% glycerol, 1 mM Na3VO4, 1 mM NaF, 1 mM PMSF, 10 μg/ml of leupeptin, aprotinin, and pepstatin A). After sonication, cell lysates were centrifugated at 12,000×g for 10 min at 4° C. Supernatants were incubated with anti-EZH2 antibody (BD Biosciences) and protein A Sepharose beads (GE Health Care) overnight at 4° C. After washing with MLB buffer, precipitated proteins were boiled in 1× Laemmli sample buffer and then separated with SDS-PAGE. The ubiquitination levels of EZH2 were recognized by using anti-Ubiquitn monoclonal antibody.

Row | SMILES | conversion of prodrug into active form [1] | tumor growth (MDA-MB-468 xenograft; 20, 40, and 80 mg/kg orally) | body weights of mice (MDA-MB-468 xenograft; 20, 40, and 80 mg/kg/day oral) | tumor weight (MDA-MB-468 xenograft; 20, 40, and 80 mg/kg/day oral) | effect of inhibitor on YC-1-induced inhibition of cell viability (MDA-MB-468) | effect of inhibitor on ERK phosphorylation (ERK) | effect of inhibitor on YC-1-induced EZH2 inhibition (EZH2 [2]) | effect of inhibitor on YC-1-induced EZH2 ubiquitination (EZH2 [3])
1 | O=C(O)CCC(=O)OCc1ccc(-c2nn(Cc3ccccc3)c3ccccc23)o1 [YC-1-succinate, succinic acid mono-[5-(1-benzyl-1H-indazol-3-yl)-furan-2-ylmethyl]ester] | quickly converted into its active form | dose-dependent inhibition | not affected | dose-dependently reduced tumor weight |  |  |  | 
2 | CCCCCCOC(=O)[C@]1(O)C[C@@H]2O[C@@]1(C)n1c3ccccc3c3c4c(c5c6ccccc6n2c5c31)C(=O)NC4 [KT5720] |  |  |  |  | significantly reversed | did not affect ERK phosphorylation | significantly reversed | could be blocked
